Experiment: Repairing effect: maximum tension of hair fibers after 3 discoloration processes, composition applied in a leave-in base
Conditions: synergy test, after 3 discolorations; compositions at 5% in leave-in base; FIG. 11
Protocol: To evaluate the effectiveness of the repairing effect, tests of maximum tension were performed after 2 or 3 discoloration processes in hair samples, composed by a naïve control group (without discoloration process), a discolored control group, a group discolored with application of the Benchmark 1 composition and a group containing the compositions of the present patent application after two or three discoloration processes, the composition being applied in a leave-in base containing 1% or 5% of the composition, this composition being the Base A or Base B, while Benchmark consisted of a ready-to-use cosmetic base (Benchmark 2 or Benchmark 3).
The leave-in base comprises: 3%-5% cetostearyl alcohol 30/70; 0.8-2.5% cetyl alcohol 0.8-2.5%; 0.05%-0.1% disodium EDTA; 0.8%-2.5% CCTA cetyl trimethyl ammonium chloride; 0.25%-1% preservatives and anti-microbial agents and water q.s. […]
After the discoloration process, a standardized amount of Leave-in was applied to the strands with or without (control) 1% or 5% of the hair composition of the present patent application on damp hair, and this composition may be the Base A or Base B or the actives making up Base B, while the benchmark consisted of a ready-to-use cosmetic base (Benchmark 2 or Benchmark 3). […]

In the case of N=C(N)NCCC[C@H](N)C(=O)O [arginine], the “increase in resistance in relation to the discolored strand” value is reported as 3.9%.

Reference: patent US20240122829A1, “HAIR COMPOSITIONS, HAIR FORMULATIONS, PROCESSES OF PRODUCTION THEREOF, USES AND METHODS OF HAIR TREATMENT” (CHEMYUNION LTDA., priority 2021, published 2024)
